Measurements from patent US10611740B2, “Aryl dihydro-2H-benzo[b][1,4]oxazine sulfonamide and related compounds for use as agonists of RORγ and the treatment of disease” (Lycera Corporation, priority 2015, dated 2020).

Legend:
RORγ-LBD = molecular target: T1, RORγ-LBD (Homo sapiens, UniProt P51449); assay: RORγ-Ligand Binding Domain (LBD) TR-FRET Assay; format: biochemical;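 as to TR-FRET Assay Max Response: 665/615 nm ratio relative to signal without ursolic acid or compound set at 100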
T1 construct: made in house; host or cells: SF9 cells (baculovirus)
T1 sequence (P51449 269-508 limits assumed): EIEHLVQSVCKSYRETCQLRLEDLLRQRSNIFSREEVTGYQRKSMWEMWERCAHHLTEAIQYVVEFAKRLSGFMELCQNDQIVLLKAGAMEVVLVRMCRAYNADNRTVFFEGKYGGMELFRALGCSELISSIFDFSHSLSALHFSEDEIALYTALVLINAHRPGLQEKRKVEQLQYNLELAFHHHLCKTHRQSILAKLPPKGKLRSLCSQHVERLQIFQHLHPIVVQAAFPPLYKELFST
Procedure, shortened: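 TR-FRET read-out using a biotin-tagged SRC1 coactivator LXXLL peptide (200 nM final), with the antagonist ursolic acid present at 2 μM final. Receptor is His-tagged LBD expressed in SF9 cells, ~3 nM final in pH 7.0 Tris/KCl/EDTA/DTT/BSA buffer; compounds in 1% DMSO final.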

Gal4-RORγ-LBD = molecular target: T2, Gal4-RORγ-LBD (Homo sapiens, UniProt P51449); assay: Gal4-RORγ Luciferase Reporter Assay in HEK-293T Cells; format: cell-based; details: HEK-293 cells
T2 construct: expressed in transfected cells; host or cells: HEK-293 cells (pcDNA3.1neo plasmid)
T2 sequence (P51449 269-508 limits assumed): T1 sequence (P51449 269-508 limits assumed)
Procedure, shortened: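 Luminescence read-out (One-Glo, 10 min RT) after overnight compound exposure at 37 °C in HEK-293 cells carrying Gal4-RORγ-LBD plus a Gal4-luciferase reporter, in the presence of 2 μM ursolic acid. Max Response is the upper plateau from a 4-parameter logistic fit, normalized to untreated signal = 100.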

[1] = luciferase reporter, with 2 μM ursolic acid

CC(C)(C[C@H]1CN(S(=O)(=O)c2cccc(C(F)(F)F)c2)c2cc(-c3cccc(Cl)c3)ccc2O1)C(=O)O [Compound 32W, (S)-3-(6-(3-chlorophenyl)-4-((3-(trifluoromethyl)phenyl)sulfonyl)-3,4-dihydro-2H-benzo[b][1,4]-oxazin-2-yl)-2,2-dimethyl-propanoic acid]
EC50 (RORγ-LBD): < 500 nM | TR-FRET Assay Max Response (RORγ-LBD): *** (The symbol “***” indicates a value in the range of greater than 150 to 200) | EC50 (Gal4-RORγ-LBD; 2 μM ursolic acid): < 500 nM | Gal4-RORγ Assay Max Response (Gal4-RORγ-LBD; 2 μM ursolic acid): ** (The symbol “**” indicates a value in the range of greater than 90 to 150)

CC(C)(C[C@H]1CN(S(=O)(=O)c2cccc(C(F)(F)F)c2)c2cc(-c3cc(F)cc(F)c3F)ccc2O1)C(=O)O [Compound 32X, (S)-2,2-dimethyl-3-(4-((3-(trifluoromethyl)phenyl)sulfonyl)-6-(2,3,5-trifluorophenyl)-3,4-dihydro-2H-benzo[b][1,4]oxazin-2-yl)propanoic acid]
EC50 (RORγ-LBD): < 500 nM | TR-FRET Assay Max Response (RORγ-LBD): *** (The symbol “***” indicates a value in the range of greater than 150 to 200) | EC50 (Gal4-RORγ-LBD; 2 μM ursolic acid): < 500 nM | Gal4-RORγ Assay Max Response (Gal4-RORγ-LBD; 2 μM ursolic acid): ** (The symbol “**” indicates a value in the range of greater than 90 to 150)

CC(C)(C[C@H]1CN(S(=O)(=O)c2cccc(C(F)(F)F)c2)c2cc(-c3cc(F)cc(Cl)c3)ccc2O1)C(=O)O [Compound 32Y, (S)-3-(6-(3-chloro-5-fluoro-phenyl)-4-((3-(trifluoromethyl)-phenyl)sulfonyl)-3,4-dihydro-2H-benzo[b][1,4]oxazin-2-yl)-2,2-dimethylpropanoic acid]
EC50 (RORγ-LBD): < 500 nM | TR-FRET Assay Max Response (RORγ-LBD): *** (The symbol “***” indicates a value in the range of greater than 150 to 200) | EC50 (Gal4-RORγ-LBD; 2 μM ursolic acid): < 500 nM | Gal4-RORγ Assay Max Response (Gal4-RORγ-LBD; 2 μM ursolic acid): ** (The symbol “**” indicates a value in the range of greater than 90 to 150)

CC(C)(C[C@H]1CN(S(=O)(=O)c2cccc(C(F)(F)F)c2)c2cc(-c3ccccc3OC(F)(F)F)ccc2O1)C(=O)O [Compound 32Z, (S)-2,2-dimethyl-3-(6-(2-(trifluoromethoxy)phenyl)-4-((3-(trifluoromethyl)phenyl)sulfonyl)-3,4-dihydro-2H-benzo[b][1,4]-oxazin-2-yl)propanoic acid]
EC50 (RORγ-LBD): < 500 nM | TR-FRET Assay Max Response (RORγ-LBD): *** (The symbol “***” indicates a value in the range of greater than 150 to 200) | EC50 (Gal4-RORγ-LBD; 2 μM ursolic acid): < 500 nM | Gal4-RORγ Assay Max Response (Gal4-RORγ-LBD; 2 μM ursolic acid): ** (The symbol “**” indicates a value in the range of greater than 90 to 150)

O=S(=O)(c1cccc(C(F)(F)F)c1)N1C[C@H](CCCO)Oc2ccc(-c3ccc(F)cc3F)cc21 [Compound 34A, (S)-3-(6-(2,4-difluorophenyl)-4-((3-(trifluoromethyl)phenyl)-sulfonyl)-3,4-dihydro-2H-benzo[b][1,4]oxazin-2-yl)propan-1-ol]
EC50 (RORγ-LBD): < 500 nM | TR-FRET Assay Max Response (RORγ-LBD): **** (The symbol “****” indicates a value greater than 200) | EC50 (Gal4-RORγ-LBD; [1]): < 500 nM | Gal4-RORγ Assay Max Response (Gal4-RORγ-LBD; [1]): * (The symbol “*” indicates a value in the range of 25 to 90)

O=S(=O)(c1cccc(C(F)(F)F)c1)N1C[C@H](CCCO)Oc2ccc(-c3ccc(F)c(F)c3)cc21 [Compound 34B, (S)-3-(6-(3,4-difluorophenyl)-4-((3-(trifluoromethyl)phenyl)-sulfonyl)-3,4-dihydro-2H-benzo[b][1,4]oxazin-2-yl)propan-1-ol]
EC50 (RORγ-LBD): < 500 nM | TR-FRET Assay Max Response (RORγ-LBD): **** (The symbol “****” indicates a value greater than 200) | EC50 (Gal4-RORγ-LBD; [1]): < 500 nM | Gal4-RORγ Assay Max Response (Gal4-RORγ-LBD; [1]): * (The symbol “*” indicates a value in the range of 25 to 90)

O=S(=O)(c1cccc(C(F)(F)F)c1)N1C[C@H](CCCO)Oc2ccc(-c3cc(F)cc(F)c3)cc21 [Compound 34C, (S)-3-(6-(3,5-difluorophenyl)-4-((3-(trifluoromethyl)phenyl)-sulfonyl)-3,4-dihydro-2H-benzo[b][1,4]oxazin-2-yl)propan-1-ol]
EC50 (RORγ-LBD): < 500 nM | TR-FRET Assay Max Response (RORγ-LBD): **** (The symbol “****” indicates a value greater than 200) | EC50 (Gal4-RORγ-LBD; [1]): < 500 nM | Gal4-RORγ Assay Max Response (Gal4-RORγ-LBD; [1]): ** (The symbol “**” indicates a value in the range of greater than 90 to 150)

O=S(=O)(c1cccc(C(F)(F)F)c1)N1C[C@H](CCCO)Oc2ccc(-c3cccc(Cl)c3)cc21 [Compound 34D, (S)-3-(6-(3-chlorophenyl)-4-((3-(trifluoromethyl)phenyl)sulfonyl)-3,4-dihydro-2H-benzo[b][1,4]-oxazin-2-yl)propan-1-ol]
EC50 (RORγ-LBD): < 500 nM | TR-FRET Assay Max Response (RORγ-LBD): **** (The symbol “****” indicates a value greater than 200) | EC50 (Gal4-RORγ-LBD; [1]): < 500 nM | Gal4-RORγ Assay Max Response (Gal4-RORγ-LBD; [1]): ** (The symbol “**” indicates a value in the range of greater than 90 to 150)

CN(C)c1cccc(-c2ccc3c(c2)N(S(=O)(=O)c2cccc(C(F)(F)F)c2)C[C@H](CCCOc2noc(=O)[nH]2)O3)n1 [Compound 35, (S)-3-(3-(6-(6-(dimethylamino)pyridin-2-yl)-4-((3-(trifluoromethyl)phenyl)sulfonyl)-3,4-dihydro-2H-benzo[b][1,4]oxazin-2-yl)propoxy)-1,2,4-oxadiazol-5(4H)-one]
EC50 (RORγ-LBD): < 500 nM | TR-FRET Assay Max Response (RORγ-LBD): **** (The symbol “****” indicates a value greater than 200) | EC50 (Gal4-RORγ-LBD; [1]): < 500 nM | Gal4-RORγ Assay Max Response (Gal4-RORγ-LBD; [1]): ** (The symbol “**” indicates a value in the range of greater than 90 to 150)

O=c1[nH]c(OCCC[C@H]2CN(S(=O)(=O)c3cccc(C(F)(F)F)c3)c3cc(-c4cc(F)cc(F)c4)ccc3O2)no1 [Compound 36A, (S)-3-(3-(6-(3,5-difluoro-phenyl)-4-((3-(trifluoro-methyl)phenyl)sulfonyl)-3,4-dihydro-2H-benzo[b][1,4]-oxazin-2-yl)propoxy)-1,2,4-oxadiazol-5(4H)-one]
EC50 (RORγ-LBD): < 500 nM | TR-FRET Assay Max Response (RORγ-LBD): **** (The symbol “****” indicates a value greater than 200) | EC50 (Gal4-RORγ-LBD; [1]): < 500 nM | Gal4-RORγ Assay Max Response (Gal4-RORγ-LBD; [1]): **** (The symbol “****” indicates a value greater than 200)

COc1cccc(-c2ccc3c(c2)N(S(=O)(=O)c2cccc(C(F)(F)F)c2)C[C@H](CCCOc2noc(=O)[nH]2)O3)c1 [Compound 36B, (S)-3-(3-(6-(3-methoxyphenyl)-4-((3-(trifluoromethyl)phenyl)-sulfonyl)-3,4-dihydro-2H-benzo[b][1,4]oxazin-2-yl)propoxy)-1,2,4-oxadiazol-5(4H)-one]
EC50 (RORγ-LBD): < 500 nM | TR-FRET Assay Max Response (RORγ-LBD): **** (The symbol “****” indicates a value greater than 200) | EC50 (Gal4-RORγ-LBD; [1]): < 500 nM | Gal4-RORγ Assay Max Response (Gal4-RORγ-LBD; [1]): ** (The symbol “**” indicates a value in the range of greater than 90 to 150)

O=c1[nH]c(OCCC[C@H]2CN(S(=O)(=O)c3cccc(C(F)(F)F)c3)c3cc(-c4cccc(C(F)(F)F)n4)ccc3O2)no1 [Compound 36C, (S)-3-(3-(4-((3-(trifluoro-methyl)phenyl)sulfonyl)-6-(6-(trifluoromethyl)-pyridin-2-yl)-3,4-dihydro-2H-benzo[b][1,4]oxazin-2-yl)propoxy)-1,2,4-oxadiazol-5(4H)-one]
EC50 (RORγ-LBD): < 500 nM | TR-FRET Assay Max Response (RORγ-LBD): **** (The symbol “****” indicates a value greater than 200) | EC50 (Gal4-RORγ-LBD; [1]): < 500 nM | Gal4-RORγ Assay Max Response (Gal4-RORγ-LBD; [1]): ** (The symbol “**” indicates a value in the range of greater than 90 to 150)

O=C(O)[C@@H](O)CC[C@H]1CN(S(=O)(=O)c2cccc(C(F)(F)F)c2)c2cc(-c3cc(F)ccc3F)ccc2O1 [Compound 37, (S)-4-((S)-6-(2,5-difluorophenyl)-4-((3-(trifluoromethyl)phenyl)sulfonyl)-3,4-dihydro-2H-benzo[b][1,4]oxazin-2-yl)-2-hydroxybutanoic acid]
EC50 (RORγ-LBD): < 500 nM | TR-FRET Assay Max Response (RORγ-LBD): *** (The symbol “***” indicates a value in the range of greater than 150 to 200) | EC50 (Gal4-RORγ-LBD; [1]): 500 to 5000 nM | Gal4-RORγ Assay Max Response (Gal4-RORγ-LBD; [1]): *** (The symbol “***” indicates a value in the range of greater than 150 to 200)

O=C(O)[C@H](O)CC[C@H]1CN(S(=O)(=O)c2cccc(C(F)(F)F)c2)c2cc(-c3cc(F)ccc3F)ccc2O1 [Compound 38, (R)-4-((S)-6-(2,5-difluorophenyl)-4-((3-(trifluoromethyl)phenyl)sulfonyl)-3,4-dihydro-2H-benzo[b][1,4]oxazin-2-yl)-2-hydroxybutanoic acid]
EC50 (RORγ-LBD): < 500 nM | TR-FRET Assay Max Response (RORγ-LBD): *** (The symbol “***” indicates a value in the range of greater than 150 to 200) | EC50 (Gal4-RORγ-LBD; [1]): < 500 nM | Gal4-RORγ Assay Max Response (Gal4-RORγ-LBD; [1]): ** (The symbol “**” indicates a value in the range of greater than 90 to 150)

C[C@](O)(CC[C@H]1CN(S(=O)(=O)c2cccc(C(F)(F)F)c2)c2cc(-c3cc(F)ccc3F)ccc2O1)C(=O)O [Compound 39, (S)-4-((S)-6-(2,5-difluorophenyl)-4-((3-(trifluoromethyl)phenyl)sulfonyl)-3,4-dihydro-2H-benzo[b][1,4]oxazin-2-yl)-2-hydroxy-2-methylbutanoic acid]
EC50 (RORγ-LBD): < 500 nM | TR-FRET Assay Max Response (RORγ-LBD): **** (The symbol “****” indicates a value greater than 200) | EC50 (Gal4-RORγ-LBD; [1]): < 500 nM | Gal4-RORγ Assay Max Response (Gal4-RORγ-LBD; [1]): ** (The symbol “**” indicates a value in the range of greater than 90 to 150)
